In patent US10563214B2, “Use of micropeptides for promoting plant growth” (UNIVERSITE TOULOUSE III-PAUL SABATIER, priority 2014, dated 2020):
“Also recorded” adds a separate entry of the source.

Tests used:
Arabidopsis thaliana [1] = assay: A. thaliana growth test, watering with miPEP164a; assay type: in vivo; conditions: watered and sprayed
Method: Watering was carried out every 2-3 days with water for the control plants and with water containing 0.1 μM or 1 μM of synthetic peptide (the sequence of which is identical to miPEP164a or to miPEP165a) for the test plants.

miR164a = assay: Northern blot analysis of the accumulation of miR164a in roots treated with synthetic peptide; assay type: in vivo, Arabidopsis thaliana; conditions: 0.1 μM synthetic peptide solubilized in water vs water control, U6 loading control, FIG. 1
Method: The photographs show the results of a Northern blot analysis of the accumulation of miR164a in roots treated with water (control, photograph on the left) or with 0.1 μM of a synthetic peptide, having a sequence identical to that of miPEP164a, solubilized in water (0.1 μM miPEP164a). The RNA U6 is used as a loading control, allowing the quantity of miR164a to be quantified.
The A. thaliana Col-0 plants are cultivated on MS basic medium supplemented with 10 g/l of sucrose.
Northern blot analysis was carried out according to the protocol described in Lauressergues et al. Plant J, 72(3):512-22, 2012.
The biological samples were homogenized in a buffer containing 0.1 M of NaCl, 2% SDS, 50 mM of Tris-HCl (pH 9), 10 mM of EDTA (pH 8) and 20 mM of mercaptoethanol, and the RNA was extracted twice with a phenol/chloroform mixture and precipitated with ethanol.
The RNA was loaded on PAGE 15% gel and transferred onto a nylon membrane (HybondNX, Amersham). The RNA was hybridized with an oligonucleotide probe, with radioactive labelling at its end, for detecting the RNA U6 or for miR164a.
The hybridizations were carried out at 55° C. The hybridization signals were quantified using a phosphorimager (Fuji) and normalized with the signal of the probe specific to the RNA U6.

Arabidopsis thaliana [2] = assay: A. thaliana growth test, watering and spraying with miPEP319a; assay type: in vivo; conditions: 0.1 μM synthetic peptide, watered and sprayed, after 3 weeks of growth vs water control; FIG. 8
Method: Arabidopsis thaliana seeds were germinated on GiFi, and then were transferred onto compost and were grown for 3 weeks.
Watering was carried out every 2-3 days and spraying was carried out every day, with water for the control plants and with water containing 0.1 μM of synthetic peptide (the sequence of which is identical to miPEP319a) for the test plants.

AtmiR319a = assay: qPCR of AtmiR319a relative expression in plants overexpressing AtmiPEP319a; assay type: in vivo, Arabidopsis thaliana; conditions: plant overexpressing AtmiPEP319a (35S promoter) vs control plant; n=10; FIG. 7
Method: The error bar corresponds to the standard error of the mean (number of individuals=10).
The RNA was extracted using the reagent Tri-Reagent (MRC) according to the manufacturer's instructions, apart from precipitation of the RNA, which was carried out with 3 volumes of ethanol. Reverse transcription of the RNA was carried out using the stem-loop specific primer RTprimer in combination with hexamers in order to carry out reverse transcription of RNA of high molecular weight. Briefly, 1 μg of RNA was added to the stem-loop specific primer (0.2 μM), hexamer (500 ng), buffer RT (1×), the enzyme SuperScript Reverse transcriptase (SSIII) (one unit), dNTPs (0.2 mM each), DTT (0.8 mM) in a final reaction mixture of 25 μl. In order to carry out the reverse transcription, a pulsed reverse transcription reaction was carried out (40 repetitions of the following cycle: 16° C. for 2 minutes, 42° C. for one minute and 50° C. for one second, followed by final inactivation of the reverse transcription at 85° C. for 5 minutes).
The total RNA of the roots of M. truncatula or of the leaves of tobacco was extracted using the extraction kit RNeasy Plant Mini Kit (Qiagen). Reverse transcription was carried out using the reverse transcriptase SuperScript II (Invitrogen) starting from 500 ng of total RNA. Three repetitions (n=3) were carried out, each with two technical repetitions. […]

[3] = 1 μM synthetic peptide, after 39 days of growth vs water control, FIG. 3

| Substance | plant growth (Arabidopsis thaliana [1]; 0.1 μM synthetic peptide, after 3 weeks of growth vs water control, FIG. 2) | number of flowers (Arabidopsis thaliana [1]; [3]) | plant growth (Arabidopsis thaliana [1]; [3]) | accumulation of miR164a (miR164a) | plant growth (Arabidopsis thaliana [2]) | accumulation (relative expression) of AtmiR319a (AtmiR319a) |
| --- | --- | --- | --- | --- | --- | --- |
| miPEP164a: Peptide encoded by miORF on pri-miR164a of A. thaliana, SEQ ID NO: 2, MPSWHGMVLLPYVKHTHASTHTHTHNIYGCACELVFH (listed as Arabidopsis thaliana) | increases the plant's growth significantly; also recorded: increases the plants' growth significantly | increases the plant's growth and number of flowers significantly | increases the plant's growth and number of flowers significantly | increase in the accumulation of miR164a |  |  |
| miPEP319a: Peptide encoded by miORF on pri-miR319a of A. thaliana, SEQ ID NO: 10, MNIHTYHHLLFPSLVFHQSSDVPNALSLHIHTYEYIIVVIDPFRITLAFR (listed as Arabidopsis thaliana) |  |  |  |  | increases the plant's growth significantly | increase in the accumulation of Atmir319a |
